Assay results reported in patent publication US20210000792A1, “METHODS FOR REDUCING OR PREVENTING CARDIOVASCULAR EVENTS IN PATIENTS WITH TYPE II DIABETES MELLITUS” (Janssen Pharmaceutica NV, priority 2017, published 2021).

How the values were obtained:
[1] = tested on: men and women with type 2 diabetes and history or high risk of cardiovascular disease; assay: CANVAS Program: integrated CANVAS and CANVAS-R clinical trials, canagliflozin versus placebo; assay type: in vivo, human; details: for Cardiovascular mortality, hazard ratio (95% confidence interval) / Total (all-cause) mortality, hazard ratio (95% confidence interval): full integrated dataset; for Primary outcome (cardiovascular mortality, nonfatal myocardial infarction, or nonfatal stroke), hazard ratio (95% confidence interval): canagliflozin vs placebo; for Primary outcome (cardiovascular mortality, nonfatal myocardial infarction, or nonfatal stroke), events per 1000 patient-years: integrated database of CANVAS and CANVAS-R
Description: (§1) Two clinical trials were completed to assess the cardiovascular safety and efficacy of canagliflozin, and how any potential benefits might balance against known risks. The complete protocols for said trials, name CANVAS and CANVAS-R, which protocols are each incorporated in their entirety herein, may be found on www.clinicaltrials.gov (more specifically at the following urls: https://clinicaltrials.gov/ct2/show/NCT01032629?term=canvas&rank=1 and https://clinicaltrials.gov/ct2/show/NCT01989754?term=canvas-r&rank=1, respectively).
(§2) All potential participants completed a 2-week, single-blind, placebo run-in period. Randomization was done centrally through an interactive web response system using a computer-generated randomization schedule prepared by the study sponsor using randomly permuted blocks. Participants in CANVAS were randomly assigned in a 1:1:1 ratio to canagliflozin 300 mg, canagliflozin 100 mg, or matching placebo, and participants in CANVAS-R were randomly assigned in a 1:1 ratio to canagliflozin or matching placebo administered at an initial dose of 100 mg daily with optional up-titration to 300 mg from week 13. Participants and all study staff were masked to individual treatment allocations until the completion of the study. Use of other background therapy for glycemic management and other risk factor control was according to best practice instituted in line with local guidelines including Renin Angiotensin System (RAS) blockade.
(§3) Post-randomization, face-to-face follow-up was scheduled for 3 visits in the first year and at 6-month intervals thereafter, with alternating telephone follow-up between face-to-face assessments. Every follow-up included inquiry about primary and secondary outcome events and serious adverse events. Urinary albumin:creatinine ratio was measured every 26 weeks in CANVAS-R, and at Week 12 and then annually in CANVAS. Serum creatinine measurement with estimation of glomerular filtration rate (eGFR) was performed at least every 26 weeks in both trials. Individuals that prematurely discontinued study treatment continued scheduled follow-up wherever possible, with extensive efforts made to obtain full outcome data for all during the final follow-up window that spanned November 2016 to February 2017.
(§4) The primary outcome was a composite of cardiovascular mortality, nonfatal myocardial infarction, or nonfatal stroke. Secondary outcomes were total mortality; cardiovascular mortality; progression of albuminuria; and the composite of cardiovascular mortality and hospitalization for heart failure. Progression of albuminuria grade was defined as a more then 30% increase in albuminuria and a switch from either normoalbuminuria to microalbuminuria or macroalbuminuria, or from microalbuminuria to macroalbuminuria. In the event that sequential testing was not significant for all then remaining outcomes were scheduled for assessment as exploratory variables in the integrated dataset.
(§5) Evaluation of total hospitalizations was also prespecified.
(§6) All major cardiovascular events, renal outcomes and deaths, plus selected safety outcomes were ratified by Endpoint Adjudication Committees. Intermediate markers of cardiovascular risk and requirement for antihyperglycemic agents were assessed to help understand the observed effects on cardiovascular and renal outcomes. Analyses of safety were of adverse events coded using the latest version of the MedDRA Dictionary. For bone fracture, the primary prespecified analysis was for low-trauma fracture events but secondary analysis of all fractures was also done. Amputations were assessed overall but numbers of cases above and below the ankle were also reported.
(§7) The primary hypothesis test was of noninferiority for the hazard ratio (HR) for the primary outcome at the margin of 1.3 for all canagliflozin versus placebo using the full integrated dataset and the intent to treat approach. […]

[2] = tested on: men and women with type 2 diabetes and history or high risk of cardiovascular disease; assay: CANVAS clinical trial, canagliflozin 300 mg or 100 mg versus placebo; assay type: in vivo, human; details: canagliflozin group
Description: as §1, §2, §3, §4, §5, §6, §7

[3] = CANVAS Program, vs placebo, listed as canagliflozin
[4] = CANVAS Program, canagliflozin group
[5] = canagliflozin compared to placebo, combined trials n=10,142
[6] = integrated CANVAS and CANVAS-R, canagliflozin group
[7] = integrated database with removal of all study time and mortality events accrued prior to Nov. 20, 2012
[8] = integrated database with removal of all study time and mortality events accrued prior to Nov. 20, 2012, vs placebo

## Cc1ccc([C@@H]2O[C@H](CO)[C@@H](O)[C@H](O)[C@H]2O)cc1Cc1ccc(-c2ccc(F)cc2)s1 [Canagliflozin, canagliflozin]
[1]; CANVAS Program, vs placebo
  Cardiovascular mortality, hazard ratio (95% confidence interval): 0.87 (0.72-1.06)
  Total (all-cause) mortality, hazard ratio (95% confidence interval): 0.87 (0.74-1.01)
  40% reduction in eGFR, RRT, or renal death, hazard ratio (95% confidence interval): 0.60 (0.47-0.77)
  40% reduction in eGFR, RRT, renal death or macroalbuminuria, hazard ratio (95% confidence interval): 0.57 (0.50-0.66)
  40% reduction in eGFR, RRT, renal or CV death, hazard ratio (95% confidence interval): 0.77 (0.66-0.89)
  Cardiovascular mortality or hospitalization for heart failure, hazard ratio (95% confidence interval): 0.78 (0.67-0.91)
  Hospitalization for heart failure, hazard ratio (95% confidence interval): 0.67 (0.52-0.87)
  Nonfatal myocardial infarction, hazard ratio (95% confidence interval): 0.85 (0.69-1.05)
  Nonfatal stroke, hazard ratio (95% confidence interval): 0.90 (0.71-1.15)
  Progression of albuminuria, hazard ratio (95% confidence interval): 0.73 (0.67-0.79)
  Regression of albuminuria, hazard ratio (95% confidence interval): 1.70 (1.51-1.91)
[1]; [3]
  Cardiovascular mortality, hazard ratio (95% confidence interval): 0.87
  Total (all-cause) mortality, hazard ratio (95% confidence interval): 0.87
  40% reduction in eGFR, RRT, or renal death, hazard ratio (95% confidence interval): 0.60
  Progression of albuminuria, hazard ratio (95% confidence interval): 0.73
[1]; [4]
  40% reduction in eGFR, RRT, or renal death, n/N: 124/5795
  40% reduction in eGFR, RRT, renal death or macroalbuminuria, n/N: 404/5795
  40% reduction in eGFR, RRT, renal or CV death, n/N: 379/5795
  Cardiovascular mortality or hospitalization for heart failure, n/N: 364/5795
  Cardiovascular mortality, n/N: 268/5795
  Cardiovascular mortality, nonfatal myocardial infarction, or nonfatal stroke, n/N: 585/5795
  Hospitalization for heart failure, n/N: 123/5795
  Nonfatal myocardial infarction, n/N: 215/5795
  Nonfatal stroke, n/N: 158/5795
  Progression of albuminuria, n/N: 1341/5196
  Regression of albuminuria, n/N: 885/1679
  Total mortality, n/N: 400/5795
[1]; CANVAS Program
  Primary outcome (cardiovascular mortality, nonfatal myocardial infarction, or nonfatal stroke), hazard ratio (95% confidence interval): 0.86 (0.75-0.97)
[1]; CANVAS Program, listed as canagliflozin
  Primary outcome (cardiovascular mortality, nonfatal myocardial infarction, or nonfatal stroke), hazard ratio (95% confidence interval): 0.86
[1]; canagliflozin compared to placebo group
  Use of other antihyperglycemic agents during follow-up, lower than placebo group: 9.3%
[1]; [5]
  Mean difference in body weight: -1.60 kg
  Mean difference in glycated hemoglobin: −0.58%
  Mean difference in systolic blood pressure: −3.93 mmHg
[1]; [6]
  Composite of sustained 40% reduction in eGFR, end-stage kidney disease or renal death, events per 1000 patient-years: 5.5 /1000 patient-years
  Progression of albuminuria grade, events per 1000 patient-years: 89.4 /1000 patient-years
[1]; canagliflozin group
  Primary outcome (cardiovascular mortality, nonfatal myocardial infarction, or nonfatal stroke), events per 1000 patient-years: 26.93 per 1000 patient-years
[1]; canagliflozin group, listed as canagliflozin
  Primary outcome (cardiovascular mortality, nonfatal myocardial infarction, or nonfatal stroke), events per 1000 patient-years: 26.9 per 1000 patient-years
[1]; [7]
  All-cause mortality, events per 1000 patient-years: 19.05 per 1000 patient-years
  Cardiovascular death, events per 1000 patient-years: 12.82 per 1000 patient-years
[1]; [8]
  All-cause mortality, hazard ratio (95% confidence interval): 0.90 (0.76-1.07)
  Cardiovascular death, hazard ratio (95% confidence interval): 0.96 (0.77-1.18)
[1]; multiple imputation for missing data, vs placebo
  Primary outcome hazard ratio when imputation for missing events was performed: 0.85
[2]
  40% reduction in eGFR, RRT, or renal death, n/N: 91/2888
  40% reduction in eGFR, RRT, renal death or macroalbuminuria, n/N: 292/2888
  40% reduction in eGFR, RRT, renal or CV death, n/N: 286/2888
  Cardiovascular mortality or hospitalization for heart failure, n/N: 269/2888
  Cardiovascular mortality, n/N: 207/2888
